Experimental data: US6436705B1, “Shape stabilized erythrocytes” (The United States of America as represented by the …, priority 1997, dated 2002)

Experiments:
Red blood cells [1] = test: Metabolic viability: ATP content of red blood cells over time; assay type: cell-based, human
Procedure: The metabolic viability of cross-linked cells was assayed by monitoring the production and depletion of ATP over time. DTBP cells were cross-linked in 5 mM DTBP 150 mM glucose for 5 hours at 4° C. The cells were then washed 3 times and incubated in 150 mM glucose for an additional 19 hrs. After washing to remove the glucose the cells were incubated at 4° C. in PBS for 72 hrs before being returned to 150 mM glucose for the final 24 hr incubation. At each time point cells were removed, washed, and spectrophotometrically assayed for ATP as described in the text. The glucose controls were cells treated in the same manor but without crosslinking, and the control cells are cells without exposure to glucose.

Red blood cells [2] = test: Deformability measurements with an ektacytometer (Shear-scan, Osmo-scan); assay type: cell-based, human; settings: 5 mM DTBP for 1 h
Procedure: Red blood cells were cross-linked with 5 mM DTBP for 1 h. Cross-linking was reversed with 10 mM DTT for 20 min. Deformability measurements were made with fresh untreated, cross-linked, and reversed cells as well as with untreated packed cells stored in CPDA-1 for 6 weeks at 4° C. The effects of cross-linking and reversal on red blood cell deformability were measured with an ektacytometer (Technicon).
The ektacytometer is a laser diffraction viscometer described in detail by Bessiss and Mohandas. Intact red blood cells and ghosts suspended in solution produce a diffuse circular laser diffraction pattern. The instrument takes advantage of the fact that when a shear force is applied to the solution crossing the beam the cells align in the direction of shear and begin deforming into uniformly oriented ellipsoids. The laser diffraction pattern then takes on an ellipsoidal shape oriented 90° from the major elliptical cell axis, with the ratio of the long axis to the short axis length determined by the degree of cell deformation. A signal proportional to mean cellular ellipticity is derived from photometric measurement of this laser diffraction pattern in the two axis directions and is designated the deformability index (DI).
Two types of deformability profiles were generated in the present experiments. […] Shear-scans were run with 40 μl of concentrated cell suspension (80% hematocrit) mixed with 3.0 ml of 3.1% (w/v) polyvinylpyrrolidone (P, av-MW 360 kD) solution containing 138 mM NaCl, 6.34 mM Na2HPO4, 2 mM NaH2PO4, and 0.04% (w/v) NaN3 with pH=7.35±0.05, osmolality=290 mOsmol/kg (by freezing point depression), and viscosity=20 cp (assumed). Osmo-scans were run by continuous addition of this suspension medium containing 100 μl of cells to a PVP solution with a graded salt concentration. Salt gradients were made by addition of high salt PVP solution with 386 mM NaCI (osmolality=750 mOsmol/kg) to a low salt PVP solution with 2.5 mM NaCl (osmolality=40 mOsmol/kg). Conductance measurements of the cell suspension in the viscometer provided an indirect measure of osmolality, which was calculated from a standard calibration curve.
Data was recorded onto a computer, and curves were fitted and plotted using custom routines in Matlab (The Math Works Inc, Natick, Mass.). Shear scans were fitted with a polynomial of degree 6 from which the maximum DI (DImax) was calculated. Osmo-scans were fitted with a running average, and DImax was calculated within the range of 180-240 mOsmol/Kg, along with the osmolality corresponding to 1/2DImax at hypertonic salt concentrations (0′), where DI decreases with increasing intracellular viscosity secondary to cell shrinkage and increased hemoglobin concentration (see Mohandas et al., J. Clin. Invest. 66563-73(1980)). The osmolality corresponding to the minimum DI (Omin) at hypotonic salt concentrations, where DI falls due to cell swelling, was also calculated. The height of the small DI peak thought to be associated with the sudden availability of excess membrane for deformation as intracellular ions and water are lost in the lower range of hypotonic salt (63-125 mOsmol/Kg) concentrations was also recorded (see Clark et al., Blood 61 899-910 (1983)).

With `COC(=N)CCSSCCC(=N)OC` [DTBP, Dimethyl-3,3′-dithiobispropionimidate] the “ATP Content” value (Red blood cells [1]; 5 mM DTBP 5 h, 72 hrs in PBS) was 51.7 µmol/dL, the ATP (Red blood cells [1]; 5 mM DTBP 5 h, after 72 hours in PBS at 4° C.) was 51.7 µmol/dL and the “ATP Content” value (Red blood cells [1]; 5 mM DTBP 5 h, final 24 hrs in glucose after PBS) was 51.5 µmol/dL. For the same molecule, the “ATP Content” value (Red blood cells [1]; 5 mM DTBP 5 h at 4° C., 24 hrs in glucose (first)) was 76.1 µmol/dL, the DImax (Red blood cells [2]; Osmo-scan) was 0.30 and the “Omin (osmolality corresponding to the minimum DI)” value (Red blood cells [2]; Osmo-scan) was 125 mOsmol/Kg. For the same molecule, the “O′ (osmolality corresponding to 1/2DImax at hypertonic salt)” value (Red blood cells [2]; Osmo-scan) was 264 mOsmol/Kg, the “reduction of DImax” value (Red blood cells [2]; Osmo-scan, FIG. 7) was 36% and the “reduction of red cell deformability as a function of shear stress” value (Red blood cells [2]; Shear-scan, FIG. 6) was “over half”.
